Data from patent US20240246941A1, “SUBSTITUTED 4-(3-AMINOPROP-1-YL)AMINOQUINOLINE ANALOGS AS MODULATORS OF MELANOMA-ASSOCIATED ANTIGEN 11 UBIQUITIN LIGASE” (ST. JUDE CHILDREN'S RESEARCH HOSPITAL, INC., priority 2020, published 2024).

Target: interaction between GST-MAGEA11 MHD and FAM-PCF11_4 peptide (MAGE-A11:PCF11) (Homo sapiens (Human), UniProt P43364)
Experiment: TR-FRET dose response competition assay for disruption of MAGE-A11:PCF11 binding
Conditions: Dose response TR-FRET screening of nine scaffold groups against MAGE-A11:PCF11; read-out: consensus IC50
Method in brief: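 Competition TR-FRET at room temperature in 50 mM Tris pH 7.5, 20 mM MgCl2, 0.1 mg/ml BSA, 1 mM DTT: final 5 nM GST-MAGEA11 MHD, 5 nM Tb-anti-GST, 200 nM FAM-PCF11_4, 90 min. Ratio 520/490 nm converted to % inhibition; IC50 from sigmoidal fit.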

Sequence of interaction between GST-MAGEA11 MHD and FAM-PCF11_4 peptide (MAGE-A11:PCF11) (P43364 218-429): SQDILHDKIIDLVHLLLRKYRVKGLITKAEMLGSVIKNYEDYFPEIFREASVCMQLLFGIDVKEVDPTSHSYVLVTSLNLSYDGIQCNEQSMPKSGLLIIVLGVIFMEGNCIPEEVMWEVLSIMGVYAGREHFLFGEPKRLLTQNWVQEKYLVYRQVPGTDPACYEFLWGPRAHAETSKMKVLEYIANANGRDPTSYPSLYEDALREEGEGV

Point of comparison: CCn1c2ccccc2c2cc(CN3CCN(Cc4cc(OC)ccc4O)CC3)ccc21 [SJ000111875-2], IC50 69.9 µM. Against it:
- COc1cccc(CNCCCNc2ccnc3cc(-c4cccc5ccccc45)ccc23)c1O [SJ000311275-1] — 4.4-fold lower, 16 µM
- Clc1ccc2c(NCCCNCc3ccc4c(c3)OCO4)ccnc2c1 [SJ000523056-1] — the same, 69.9 µM
- COc1cccc(CNCCCNc2ccnc3cc(-c4cc(C(F)(F)F)cc(C(F)(F)F)c4)ccc23)c1O [SJ000311271-1] — the same, 69.9 µM
- CCn1c2ccccc2c2cc(CN3CCc4nnc(CNC(=O)c5ccccc5)n4CC3)ccc21 [SJ000307948-1] — the same, 69.9 µM
- COCCNC(=O)Cn1cnc2cc(-c3ccc(Cl)cc3)sc2c1=O [SJ000395304-1] — the same, 69.9 µM
- CCCN1C(=O)c2ccccc2NC1c1ccc(OC)c(COc2ccc([N+](=O)[O-])cc2)c1 (centres unmarked) [SJ000288430-1] — the same, 69.9 µM
- CCCn1c(=O)[nH]c(=O)c2c1nc(-c1ccc(C(C)(C)C)cc1)n2CCN1CCOCC1 [SJ000377955-1] — the same, 69.9 µM
- O=C(Cn1cnc2cc(-c3ccc(Cl)cc3)sc2c1=O)NCc1ccc(F)cc1 [SJ000444020-1] — the same, 69.9 µM
- FC(F)(F)c1ccc2c(NCCCNCc3ccccc3C(F)(F)F)ccnc2c1 [SJ000521049-1] — the same, 69.9 µM
- COc1ccc(C(F)(F)F)cc1CNCCCNc1ccnc2cc(Cl)ccc12 [SJ000521036-1] — the same, 69.9 µM
- O=C(NCC(O)CO)c1ccc2[nH]c3ccccc3c2c1 (centres unmarked) [SJ000053810-1] — the same, 69.9 µM
- CCC(CC)c1ccc2c(NCCCNCc3cccc(OC)c3O)ccnc2c1 [SJ000311267-1] — 7-fold lower, 9.95 µM
- Clc1ccc2c(NCCCNCc3ccccc3)ccnc2c1 [SJ000361100-1] — the same, 69.9 µM
- CN(C)c1ccc(C2Nc3ccccc3C(=O)N2CCCN2CCOCC2)cc1 (centres unmarked) [SJ000803767-1] — within 1.5-fold, 71.1 µM
- CCCn1c(-c2cc(Br)ccc2F)nc2c1c(=O)[nH]c(=O)n2Cc1ccccc1 [SJ000437843-1] — the same, 69.9 µM
- CCn1c2ccccc2c2cc(CN3CCC(N4CCN(c5ccccc5)CC4)CC3)ccc21 [SJ000112860-1] — the same, 69.9 µM
- CC(=O)NC1=C(N)C(=O)c2ccccc2C1=O [SJ000053101-1] — the same, 69.9 µM
- CCOc1ccc(N(C(C)=O)C2=C(N)C(=O)c3ccccc3C2=O)cc1 [SJ000558312-2] — within 1.5-fold, 65.7 µM
- COc1ccc(C2=C(c3ccc([N+](=O)[O-])cc3)C(=O)OC2)cc1 [SJ000367280-1] — the same, 69.9 µM
- CC(C)(C)c1ccc(C2=C(c3ccc([N+](=O)[O-])cc3)C(=O)OC2)cc1 [SJ000368097-1] — the same, 69.9 µM
- COc1cccc(CNCCCNc2ccnc3cc(CCC(C)C)ccc23)c1O [SJ000311247-1] — the same, 69.9 µM
- FC(F)(F)c1cccc(CNCCCNc2ccnc3cc(C(F)(F)F)ccc23)c1 [SJ000521047-1] — the same, 69.9 µM
- CCCCn1c(=O)[nH]c(=O)c2c1nc(-c1ccc(OC)c(Br)c1)n2CC(C)C [SJ000378943-1] — the same, 69.9 µM
- COc1ccc(F)cc1CNCCCNc1ccnc2cc(Oc3ccccc3)ccc12 [SJ000311209-1] — 2.4-fold lower, 29 µM
- CCCCn1c(=O)[nH]c(=O)c2c1nc(-c1ccc(OC)c(C)c1)n2C [SJ000425256-1] — the same, 69.9 µM
- COc1ccc(F)cc1CNCCCNc1ccnc2cc(Cc3ccccc3)ccc12 [SJ000311309-1] — 3.8-fold lower, 18.3 µM
- COc1cc(NCc2ccc3nc(N)nc(N)c3c2C)cc(OC)c1OC [SJ000574313-7] — 7.4-fold lower, 9.46 µM
- C=C(C)CN(CC)C(=O)Cn1cnc2cc(-c3ccc(OC)cc3)sc2c1=O [SJ000429044-1] — the same, 69.9 µM
- CC1CN(c2oc(-c3ccc([N+](=O)[O-])cc3)nc2C#N)CC(C)O1 (centres unmarked) [SJ000478204-1] — the same, 69.9 µM
- Cn1c2ccccc2c2cc(C3Nc4ccccc4C(=O)N3Cc3ccccc3)ccc21 (centres unmarked) [SJ000288408-1] — the same, 69.9 µM
- COc1ccc(CN2C(=O)c3ccccc3NC2c2ccc(OC)cc2)cc1 (centres unmarked) [SJ000510744-1] — the same, 69.9 µM
- COc1ccc(C2Nc3ccccc3C(=O)N2CCCN2CCOCC2)cc1OC(F)F (centres unmarked) [SJ000803760-1] — within 1.5-fold, 72.1 µM
- Cc1ccc(S(=O)(=O)c2nc(-c3cccc(C)c3)oc2N2CCOCC2)cc1 [SJ000027480-1] — 6.2-fold lower, 11.2 µM
- CCC(COC(C)=O)NC1=C(Cl)C(=O)c2ccccc2C1=O (centres unmarked) [SJ000149466-1] — 4.1-fold lower, 17.2 µM
- COCCn1c(-c2ccc(F)cc2)nc2c1c(=O)[nH]c(=O)n2CC(C)C [SJ000422648-1] — the same, 69.9 µM
- COc1ccc(CN2C(=O)c3ccccc3NC2c2ccc([N+](=O)[O-])cc2)cc1 (centres unmarked) [SJ000510745-1] — the same, 69.9 µM
- CCN1CCN(c2nc(N)c3ccccc3n2)CC1 [SJ000202571-1] — the same, 69.9 µM
- Fc1cccc(C(F)(F)F)c1CNCCCNc1ccnc2cc(C(F)(F)F)ccc12 [SJ000521059-1] — the same, 69.9 µM
- CCCCn1c(=O)[nH]c(=O)c2c1nc(-c1ccc(OC)cc1)n2C [SJ000425260-1] — the same, 69.9 µM
- Cc1ccc(NC2=C(Cl)C(=O)c3ccccc3C2=O)cc1 [SJ000120750-1] — the same, 69.9 µM
- COc1ccccc1Nc1nc(N)c2ccccc2n1 [SJ000192505-1] — the same, 69.9 µM
- CCCN(CCCCNc1ccnc2cc(Cl)ccc12)Cc1cc(Br)ccc1O [SJ000311196-1] — the same, 69.9 µM
- CCCS(=O)(=O)N1CCN(Cc2ccc3c(c2)c2ccccc2n3CC)CC1 [SJ000167951-1] — 3.6-fold lower, 19.2 µM
- COCCn1c(-c2ccc(OC)cc2)nc2c1c(=O)[nH]c(=O)n2CC(C)C [SJ000425224-1] — the same, 69.9 µM
- CCCn1c(=O)c2nc(-c3ccc(S(=O)(=O)O)cc3)[nH]c2n(CCC)c1=O [SJ000287650-2] — the same, 69.9 µM
- CC1CN(c2oc(-c3ccc(F)cc3)nc2C#N)CC(C)O1 (centres unmarked) [SJ000478453-1] — the same, 69.9 µM
- COc1cccc(F)c1CNCCCNc1ccnc2cc(Cl)ccc12 [SJ000311328-2] — the same, 69.9 µM
- CC1CN(c2oc(-c3ccc(Cl)cc3)nc2C#N)CC(C)O1 (centres unmarked) [SJ000478208-1] — the same, 69.9 µM
- CCCN1C(=O)c2ccccc2NC1c1ccc(OC)c(COc2ccccc2F)c1 (centres unmarked) [SJ000295736-1] — the same, 69.9 µM
- CCCn1c(-c2ccc(SC)cc2)nc2c1c(=O)[nH]c(=O)n2Cc1ccccc1 [SJ000381119-1] — the same, 69.9 µM
- CCCCOC(=O)Cn1cnc2cc(-c3ccc(OC)cc3)sc2c1=O [SJ000399852-1] — the same, 69.9 µM
- COc1ccc(C2Nc3ccccc3C(=O)N2Cc2ccc(F)cc2)cc1 (centres unmarked) [SJ000510742-1] — the same, 69.9 µM
- COc1cccc(CNCCCNc2ccnc3cc(C4CCCCC4)ccc23)c1O [SJ000311263-1] — 2.2-fold lower, 32.4 µM

Same assay, conditions: Table 5, dose response TR-FRET screening of 59 quinoline compounds against MAGE-A11:PCF11; read-out: TR-FRET IC50

Point of comparison: CCCCCCNCCCNc1ccnc2cc(C(F)(F)F)ccc12 [SJ000361124-1], IC50 57.6 µM. Against it:
- Clc1ccc2c(NCCCNCc3csc4ccccc34)ccnc2c1 [SJ000521033-1] — higher, > 70 µM
- CCCN(CCCNc1ccnc2cc(Cl)ccc12)Cc1ccc(CC)cc1 [SJ000523001-1] — higher, > 70 µM
- Cc1ccc(F)cc1CN(CCCCNc1ccnc2cc(Cl)ccc12)Cc1ccccc1 [SJ000520449-1] — higher, > 70 µM
- Clc1cccc(-c2ccc(CNCCCNc3ccnc4cc(Cl)ccc34)o2)c1 [SJ000523069-1] — higher, > 70 µM
- Cc1ccc(C)c(CN(CCCCNc2ccnc3cc(Cl)ccc23)Cc2ccccc2)c1 [SJ000361209-2] — higher, > 70 µM
- Clc1ccc2c(NCCCNCc3cc4ccccc4s3)ccnc2c1 [SJ000521032-1] — higher, > 70 µM
- Clc1ccc(Oc2ccc3c(NCCCNCc4ccco4)ccnc3c2)cc1 [SJ000311226-1] — higher, > 70 µM
- CCC(C)CN(CCCCNc1ccnc2cc(Cl)ccc12)Cc1ccccc1 (centres unmarked) [SJ000361208-2] — higher, > 70 µM

Same assay, conditions: Table 8, representative compounds; read-out: TR-FRET IC50

Point of comparison: COc1ccc(F)cc1CNCCCNc1ccnc2cc(Cc3ccc(C#N)cc3)ccc12 [SJ000311305], IC50 69.9 µM. Against it:
- CCc1ccc(CNCCCNc2ccnc3cc(C(F)(F)F)ccc23)cc1 [SJ000521067] — 1.7-fold lower, 40.9 µM
- Nc1c2ccccc2nc2ccccc12 [SJ000285450] — higher, > 75.5 µM
- COc1ccc(F)cc1CNCCCNc1ccnc2cc(Cc3ccc(F)cc3Cl)ccc12 [SJ000311325] — 4-fold lower, 17.6 µM
- FC(F)(F)c1ccc2c(NCCCNCc3c4ccccc4cc4ccccc34)ccnc2c1 [SJ000361126] — the same, 69.9 µM
- COc1cccc(Oc2ccc3c(NCCCNCc4cccc(OC)c4O)ccnc3c2)c1 [SJ000311215] — the same, 69.9 µM
- COc1cccc(CNCCCNc2ccnc3cc(-c4ccc(C(C)(C)C)cc4)ccc23)c1O [SJ000311287] — 15-fold lower, 4.67 µM
- c1cc(CNCCCNc2ccnc3cc(CC4CCCC4)ccc23)c2c(c1)OCO2 [SJ000311252] — 4.4-fold lower, 16 µM
- O=[N+]([O-])c1ccc(CNCCCNc2ccnc3cc(Cl)ccc23)cc1O [SJ000311191] — the same, 69.9 µM
- N#Cc1ccc(Cc2ccc3c(NCCCNCc4cccc5c4OCO5)ccnc3c2)cc1 [SJ000311304] — within 1.5-fold, 66 µM
- COc1cccc(CNCCCNc2ccnc3cc(C4=CC=CC5=CC=CC=CC54)ccc23)c1O (centres unmarked) [SJ000311275] — 4.4-fold lower, 16 µM
- COc1cc(Cc2ccc3c(NCCCNCc4cccc(OC)c4O)ccnc3c2)cc(OC)c1 [SJ000311311] — 2.1-fold lower, 33.6 µM
- COc1ccc(F)cc1CNCCCNc1ccnc2cc(-c3ccc(C(C)(C)C)cc3)ccc12 [SJ000311289] — 34-fold lower, 2.04 µM
- COc1ccc(O)c(C(C)NCCCNC2C=CN=C3C=C(Cl)C=CC32)c1 (centres unmarked) [SJ000311188] — the same, 69.9 µM
- COc1cc(Cc2ccc3c(NCCCNCc4cc(F)ccc4OC)ccnc3c2)cc(OC)c1 [SJ000311313] — 2.1-fold lower, 33.8 µM
- c1cc(CNCCCNc2ccnc3cc(C4CCCCC4)ccc23)c2c(c1)OCO2 [SJ000311264] — 2.9-fold lower, 23.7 µM
- CCC(CC)c1ccc2c(NCCCNCc3cccc(OC)c3O)ccnc2c1 [SJ000311267] — 7-fold lower, 9.95 µM
- COc1ccc(F)cc1CNCCCNc1ccnc2cc(Cc3cccc(C(F)(F)F)c3)ccc12 [SJ000311301] — 3.1-fold lower, 22.2 µM
- COc1cccc(CNCCCNc2ccnc3cc(Cc4c(Cl)cccc4Cl)ccc23)c1O [SJ000311315] — 5.1-fold lower, 13.8 µM
- COc1ccc(F)cc1CNCCCNc1ccnc2cc(CC(C)C)ccc12 [SJ000311261] — the same, 69.9 µM
